Reference: BindingDB's records for patent US10435400 (Shanghai Haiyan Pharmaceutical Technology, 2019)

Target: Epidermal growth factor receptor (Homo sapiens, UniProt P00533)
Assay: Wild Type EGFR and Mutant EGFR Kinase Inhibition Test
Protocol: After the compounds (i.e., test compounds) prepared by the above-mentioned examples described herein were added, the concentration of DMSO was 2%.The working concentration of each component in 10 μl EGFR WT kinase reaction system was: 10 μM ATP, 0.8 ng/μl EGFR WT kinase, 2 μM Tyr04 substrate.

Epidermal growth factor receptor, sequence (P00533 whole entry): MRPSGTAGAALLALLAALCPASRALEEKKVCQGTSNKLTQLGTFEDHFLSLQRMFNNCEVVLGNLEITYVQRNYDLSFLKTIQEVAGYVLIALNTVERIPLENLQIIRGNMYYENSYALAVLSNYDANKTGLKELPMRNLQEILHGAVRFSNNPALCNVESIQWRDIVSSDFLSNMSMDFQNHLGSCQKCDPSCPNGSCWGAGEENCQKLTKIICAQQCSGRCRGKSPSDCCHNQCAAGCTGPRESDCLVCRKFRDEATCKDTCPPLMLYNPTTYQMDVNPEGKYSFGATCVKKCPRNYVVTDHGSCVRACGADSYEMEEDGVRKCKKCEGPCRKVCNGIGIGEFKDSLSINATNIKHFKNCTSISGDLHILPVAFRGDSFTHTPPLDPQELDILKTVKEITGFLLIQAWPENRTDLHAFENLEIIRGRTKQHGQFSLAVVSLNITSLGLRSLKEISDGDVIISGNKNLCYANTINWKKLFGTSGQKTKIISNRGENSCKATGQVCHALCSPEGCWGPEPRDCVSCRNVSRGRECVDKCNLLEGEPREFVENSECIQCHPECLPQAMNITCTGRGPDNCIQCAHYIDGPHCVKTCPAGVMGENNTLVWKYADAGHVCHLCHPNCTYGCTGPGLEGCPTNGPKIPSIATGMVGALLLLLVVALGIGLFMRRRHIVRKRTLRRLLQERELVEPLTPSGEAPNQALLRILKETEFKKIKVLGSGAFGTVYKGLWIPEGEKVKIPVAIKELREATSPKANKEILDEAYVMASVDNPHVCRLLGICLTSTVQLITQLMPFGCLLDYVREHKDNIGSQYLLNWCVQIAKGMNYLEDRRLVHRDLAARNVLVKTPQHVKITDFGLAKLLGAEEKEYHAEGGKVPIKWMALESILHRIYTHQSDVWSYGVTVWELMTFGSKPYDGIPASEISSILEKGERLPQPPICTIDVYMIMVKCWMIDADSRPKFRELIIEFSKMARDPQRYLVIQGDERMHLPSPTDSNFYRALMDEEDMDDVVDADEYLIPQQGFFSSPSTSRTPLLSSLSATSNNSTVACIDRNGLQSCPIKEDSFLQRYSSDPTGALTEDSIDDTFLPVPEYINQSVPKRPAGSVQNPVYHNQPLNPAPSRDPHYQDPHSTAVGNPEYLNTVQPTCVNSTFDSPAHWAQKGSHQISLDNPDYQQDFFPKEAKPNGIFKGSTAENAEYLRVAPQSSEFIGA

Question: `C=CC(=O)Nc1cc(Nc2ncc(Cl)c(-c3cnc4c(ccn4C)c3)n2)c(OC)cc1N1CCC(N(C)C)CC1` [US10435400, Compound Z-2] was tested. Which IC50 did it give?
Answer: 272 nM
